Values of other authors, collected in US6887210B2, “Devices and methods for obtaining mammary fluid samples for evaluating breast diseases, including cancer” (Atossa Healthcare, Inc., priority 2000, dated 2005).

Settings: rapid removal from plasma by kidney, liver and mammary gland

CC[C@H](C)[C@@H]1NC(=O)[C@H](Cc2ccc(O)cc2)NC(=O)[C@@H](N)CSSC[C@@H](C(=O)N2CCC[C@H]2C(=O)N[C@@H](CC(C)C)C(=O)NCC(N)=O)NC(=O)[C@H](CC(N)=O)NC(=O)[C@H](CCC(N)=O)NC1=O [oxytocin]
half-life of oxytocin in the human bloodstream / circulation: 10 to 15 min
